Experimental data as given in ChEMBL document CHEMBL1201862, “PubChem BioAssay data set” (2004).
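Five concentrations, 48 hours, 96-well plates. Here, GI50 denotes the concentration required for 50% inhibition of growth.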 Active and inactive are the calls of the source. Rule as the data show it: active = GI50 up to about 1.1 µM and inactive = higher.

Assays:
Assay in all cases: DTP human tumour cell line panel, 48 h
SK-MEL-2 = tested on: SK-MEL-2
SN12C = tested on: SN12C
SF-539 = tested on: SF-539
Malme-3M = tested on: Malme-3M
SK-OV-3 = tested on: SK-OV-3
A549 = tested on: A549
Hs-578T = tested on: Hs-578T
SF-268 = tested on: SF-268
HOP-62 = tested on: HOP-62
OVCAR-8 = tested on: OVCAR-8
HCT-116 = tested on: HCT-116
RXF 393 = tested on: RXF 393
SK-MEL-5 = tested on: SK-MEL-5
KM12 = tested on: KM12
ACHN = tested on: ACHN
HT-29 = tested on: HT-29
NCI/ADR-RES = tested on: NCI/ADR-RES
MDA-N = tested on: MDA-N
UACC-62 = tested on: UACC-62
NCI-H23 = tested on: NCI-H23

## COc1ccc(NS(=O)(=O)c2ccc3ncn(NS(=O)(=O)c4ccc(I)cc4)c(=O)c3c2)cc1
SK-MEL-2
  GI50: > 100 µM (inactive)
SN12C
  GI50: > 100 µM (inactive)
SF-539
  GI50: > 100 µM (inactive)
Malme-3M
  GI50: > 100 µM (inactive)
SK-OV-3
  GI50: > 100 µM (inactive)
A549
  GI50: > 100 µM (inactive)
Hs-578T
  GI50: > 100 µM (inactive)
SF-268
  GI50: > 100 µM (inactive)
HOP-62
  GI50: > 100 µM (inactive)
OVCAR-8
  GI50: > 100 µM (inactive)
HCT-116
  GI50: > 100 µM (inactive)
RXF 393
  GI50: > 100 µM (inactive)
SK-MEL-5
  GI50: > 100 µM (inactive)
KM12
  GI50: 8.89 µM (inactive)
ACHN
  GI50: > 100 µM (inactive)
HT-29
  GI50: > 100 µM (inactive)
NCI/ADR-RES
  GI50: > 100 µM (inactive)
MDA-N
  GI50: > 100 µM (inactive)
UACC-62
  GI50: 95.9 µM (inactive)
NCI-H23
  GI50: > 100 µM (inactive)

## CNC=O
SK-MEL-2
  GI50: > 10000 µM (inactive)
SN12C
  GI50: > 7740 µM (inactive)
SF-539
  GI50: > 10000 µM (inactive)
Malme-3M
  GI50: > 10000 µM (inactive)
SK-OV-3
  GI50: > 3980 µM (inactive)
A549
  GI50: > 10000 µM (inactive)
Hs-578T
  GI50: > 10000 µM (inactive)
SF-268
  GI50: > 10000 µM (inactive)
HOP-62
  GI50: > 3980 µM (inactive)
OVCAR-8
  GI50: > 10000 µM (inactive)
HCT-116
  GI50: > 10000 µM (inactive)
RXF 393
  GI50: > 10000 µM (inactive)
SK-MEL-5
  GI50: > 10000 µM (inactive)
KM12
  GI50: > 10000 µM (inactive)
ACHN
  GI50: > 10000 µM (inactive)
HT-29
  GI50: > 10000 µM (inactive)
NCI/ADR-RES
  GI50: > 10000 µM (inactive)
MDA-N
  GI50: > 10000 µM (inactive)
UACC-62
  GI50: > 8090 µM (inactive)
NCI-H23
  GI50: > 10000 µM (inactive)

## C#CC[C@@H]1C(=O)N(Cc2ccc(OC)cc2)[C@@H](C(C)C)C(=O)N1Cc1ccc(OC)cc1
SK-MEL-2
  GI50: 19.9 µM (inactive)
SN12C
  GI50: 53 µM (inactive)
SF-539
  GI50: 29.2 µM (inactive)
Malme-3M
  GI50: 55.2 µM (inactive)
SK-OV-3
  GI50: > 100 µM (inactive)
A549
  GI50: 36.1 µM (inactive)
Hs-578T
  GI50: > 100 µM (inactive)
SF-268
  GI50: 82.2 µM (inactive)
HOP-62
  GI50: > 100 µM (inactive)
OVCAR-8
  GI50: 46.1 µM (inactive)
HCT-116
  GI50: 28.1 µM (inactive)
RXF 393
  GI50: 2.79 µM (inactive)
SK-MEL-5
  GI50: 15.6 µM (inactive)
KM12
  GI50: 35.8 µM (inactive)
ACHN
  GI50: 45.4 µM (inactive)
HT-29
  GI50: 26.8 µM (inactive)
NCI/ADR-RES
  GI50: 31.2 µM (inactive)
MDA-N
  GI50: 22.9 µM (inactive)
UACC-62
  GI50: 25.2 µM (inactive)
NCI-H23
  GI50: 33.2 µM (inactive)

## CC(=O)CSCc1ccccn1
SK-MEL-2
  GI50: 25.9 µM (inactive)
SN12C
  GI50: 75.5 µM (inactive)
SF-539
  GI50: 27 µM (inactive)
Malme-3M
  GI50: 4.72 µM (inactive)
SK-OV-3
  GI50: > 100 µM (inactive)
A549
  GI50: 62.5 µM (inactive)
Hs-578T
  GI50: 2.69 µM (inactive)
SF-268
  GI50: 8.87 µM (inactive)
HOP-62
  GI50: 42.4 µM (inactive)
OVCAR-8
  GI50: 38.4 µM (inactive)
HCT-116
  GI50: 45.3 µM (inactive)
RXF 393
  GI50: > 100 µM (inactive)
SK-MEL-5
  GI50: 26 µM (inactive)
KM12
  GI50: 36.8 µM (inactive)
ACHN
  GI50: 61.5 µM (inactive)
HT-29
  GI50: 51.3 µM (inactive)
NCI/ADR-RES
  GI50: > 100 µM (inactive)
MDA-N
  GI50: 37.8 µM (inactive)
UACC-62
  GI50: 31.3 µM (inactive)
NCI-H23
  GI50: 62.2 µM (inactive)

## C=C(CN(C)C)C(=O)c1ccc(OC)cc1
SK-MEL-2
  GI50: 4.61 µM (inactive)
SN12C
  GI50: 2.48 µM (inactive)
SF-539
  GI50: 4.1 µM (inactive)
Malme-3M
  GI50: 1.48 µM (inactive)
SK-OV-3
  GI50: 24.7 µM (inactive)
A549
  GI50: 18.2 µM (inactive)
Hs-578T
  GI50: 15.5 µM (inactive)
SF-268
  GI50: 6.05 µM (inactive)
HOP-62
  GI50: 21.7 µM (inactive)
OVCAR-8
  GI50: 1.07 µM (active)
HCT-116
  GI50: 1.58 µM (inactive)
RXF 393
  GI50: 10 µM (inactive)
SK-MEL-5
  GI50: 8.24 µM (inactive)
KM12
  GI50: 14.5 µM (inactive)
ACHN
  GI50: 1.12 µM (active)
HT-29
  GI50: 5.71 µM (inactive)
NCI/ADR-RES
  GI50: 8.32 µM (inactive)
MDA-N
  GI50: 7.46 µM (inactive)
UACC-62
  GI50: 9.33 µM (inactive)
NCI-H23
  GI50: 7.4 µM (inactive)
